ChEMBL document CHEMBL1201862, “PubChem BioAssay data set” (2004)
The source made the active and inactive calls.

How the values were obtained:
Fatty acid synthase [1] = biological target: T1, Fatty acid synthase (Homo sapiens, UniProt P49327); assay: FAS thioesterase domain inhibitors, dose response, biochemical, endpoint fluorescence intensity, uHTS hits (AID 624327); format: functional;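 further: fluorescence from hydrolysis of an O-methyl fluorescein acyl ester substrate by the enzyme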
Fatty acid synthase [2] = biological target: T1, Fatty acid synthase; assay: FAS thioesterase domain inhibitors, dose response, biochemical, kinetic fluorescence intensity (AID 624326); format: functional;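 further: rate of fluorescence rise from hydrolysis of a fluorogenic O-methyl fluorescein ester substrate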
Protein RecA = biological target: T2, Protein RecA (Mycobacterium tuberculosis, UniProt P9WHJ3); assay: Fluorescence Cell-Free Homogeneous Dose Retest to Identify Inhibitors of RecA-Intein Splicing Activity. [Related pubchem assays (depositor defined):AID2097, AID2223, AID489010, AID492950]; format: functional
T2 sequence (P9WHJ3 whole entry): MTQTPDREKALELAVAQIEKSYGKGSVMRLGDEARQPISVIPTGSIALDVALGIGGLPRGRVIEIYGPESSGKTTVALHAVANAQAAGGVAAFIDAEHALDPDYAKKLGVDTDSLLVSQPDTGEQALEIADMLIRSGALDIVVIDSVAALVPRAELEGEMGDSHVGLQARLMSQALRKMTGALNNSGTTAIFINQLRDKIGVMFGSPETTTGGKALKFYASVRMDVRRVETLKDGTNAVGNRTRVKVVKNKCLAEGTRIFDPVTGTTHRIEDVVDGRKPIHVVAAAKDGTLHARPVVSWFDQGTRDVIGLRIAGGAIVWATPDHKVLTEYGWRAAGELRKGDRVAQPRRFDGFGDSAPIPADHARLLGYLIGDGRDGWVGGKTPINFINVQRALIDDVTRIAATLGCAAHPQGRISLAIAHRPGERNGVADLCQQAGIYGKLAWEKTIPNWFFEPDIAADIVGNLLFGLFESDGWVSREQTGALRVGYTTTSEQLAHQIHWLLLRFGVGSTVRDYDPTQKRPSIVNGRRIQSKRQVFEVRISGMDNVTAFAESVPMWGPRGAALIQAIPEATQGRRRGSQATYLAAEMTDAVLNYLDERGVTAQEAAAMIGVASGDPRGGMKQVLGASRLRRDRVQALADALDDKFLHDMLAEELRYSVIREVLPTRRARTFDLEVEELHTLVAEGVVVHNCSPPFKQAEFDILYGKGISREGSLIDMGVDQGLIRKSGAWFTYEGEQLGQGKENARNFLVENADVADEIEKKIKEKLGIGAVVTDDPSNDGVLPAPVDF

[3] = biological target: T3, Replicative DNA helicase DnaB (Mycobacterium tuberculosis, UniProt P9WMR3); assay: DnaB intein splicing inhibitors, dose response, biochemical, cell-free fluorescence (AID 449749); format: functional
T3 sequence (P9WMR3 whole entry): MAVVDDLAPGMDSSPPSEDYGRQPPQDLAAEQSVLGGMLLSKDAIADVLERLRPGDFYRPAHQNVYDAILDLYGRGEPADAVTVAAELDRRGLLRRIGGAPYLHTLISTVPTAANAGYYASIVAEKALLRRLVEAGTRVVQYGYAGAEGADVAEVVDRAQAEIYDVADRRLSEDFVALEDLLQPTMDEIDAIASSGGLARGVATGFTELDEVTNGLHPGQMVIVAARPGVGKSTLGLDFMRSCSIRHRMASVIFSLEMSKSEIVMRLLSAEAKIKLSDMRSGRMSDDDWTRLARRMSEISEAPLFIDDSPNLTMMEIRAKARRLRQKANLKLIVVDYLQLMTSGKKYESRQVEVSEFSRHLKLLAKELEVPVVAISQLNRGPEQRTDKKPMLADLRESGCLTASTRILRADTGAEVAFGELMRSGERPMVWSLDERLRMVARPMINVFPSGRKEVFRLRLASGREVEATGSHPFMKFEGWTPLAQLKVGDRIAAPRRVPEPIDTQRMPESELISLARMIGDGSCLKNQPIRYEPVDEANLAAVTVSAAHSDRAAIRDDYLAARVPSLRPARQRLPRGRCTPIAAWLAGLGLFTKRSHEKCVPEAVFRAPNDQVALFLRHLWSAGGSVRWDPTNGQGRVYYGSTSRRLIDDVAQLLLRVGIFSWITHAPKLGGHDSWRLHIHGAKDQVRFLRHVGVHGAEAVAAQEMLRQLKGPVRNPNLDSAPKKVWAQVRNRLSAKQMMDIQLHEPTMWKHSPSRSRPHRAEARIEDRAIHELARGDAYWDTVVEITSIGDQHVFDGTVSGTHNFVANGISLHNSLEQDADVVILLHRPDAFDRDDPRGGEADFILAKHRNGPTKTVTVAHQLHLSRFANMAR

[4] = biological target: T4, Polyadenylate-binding protein 1 (Homo sapiens, UniProt P11940); assay: PABP1 MLLE–PAM2 interaction inhibitors, dose response, miRNA deadenylation inhibitor project, biochemical, fluorescence polarization, Cy5-PAM2 peptide, secondary (AID 602260); format: functional; settings: read-out: IC50_Mean
T4 sequence (P11940 whole entry): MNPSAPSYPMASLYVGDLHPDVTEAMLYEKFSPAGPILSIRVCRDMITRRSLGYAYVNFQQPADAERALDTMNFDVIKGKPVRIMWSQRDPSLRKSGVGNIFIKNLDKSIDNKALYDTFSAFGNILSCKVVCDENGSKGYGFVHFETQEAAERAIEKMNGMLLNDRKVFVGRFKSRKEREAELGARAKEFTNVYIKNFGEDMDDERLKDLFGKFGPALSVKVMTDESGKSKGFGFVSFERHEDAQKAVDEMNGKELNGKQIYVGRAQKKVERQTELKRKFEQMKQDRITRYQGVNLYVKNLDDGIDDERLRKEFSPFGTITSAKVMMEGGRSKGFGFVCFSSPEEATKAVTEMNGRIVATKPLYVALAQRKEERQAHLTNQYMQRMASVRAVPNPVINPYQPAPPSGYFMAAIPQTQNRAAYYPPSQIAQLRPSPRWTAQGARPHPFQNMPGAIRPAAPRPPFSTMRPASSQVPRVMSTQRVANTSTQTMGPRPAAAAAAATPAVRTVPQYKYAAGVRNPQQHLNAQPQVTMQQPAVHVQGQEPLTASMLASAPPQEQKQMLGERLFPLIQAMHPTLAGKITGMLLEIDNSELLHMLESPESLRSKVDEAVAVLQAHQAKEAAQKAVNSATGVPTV

[5] = biological target: T4, Polyadenylate-binding protein 1; assay: PABP1 MLLE–PAM2 binding inhibitor potency, dose response, biochemical, fluorescence polarization, FITC-PAM2 peptide (AID 602259); format: functional; settings: read-out: IC50_Mean
[6] = Shn3 3'UTR reporter inhibitors, dose response, cell-based, Clone20 osteoblasts, firefly luciferase, cherry-picked (AID 624132); format: functional;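 further: firefly luciferase luminescence from reporter carrying the Shn3 3'UTR in osteoblasts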
INS1 = assay: beta cell apoptosis inhibitors, cytokine rescue, dose response, luminescence, retest (AID 449756); format: functional, cell-based; settings: Rattus norvegicus;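 further: cell death triggered by IL-1 beta plus TNF-alpha plus IFN-gamma mixture; protective hits raise ATP signal compared with cytokine alone wells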
[7] = C. albicans growth with fluconazole, confirmation, fluorescence, retest (AID 2467); format: functional, cell-based
[8] = inhibitors of intracellular T. cruzi replication, confirmation, NIH3T3 host cells, beta-gal luminescence (AID 2044); format: functional, cell-based;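 further: intracellular parasites grown in NIH/3T3 mouse fibroblasts as host cells; luminescent beta-galactosidase reporter signal from transgenic T. cruzi replicating inside host cells; inhibitors lower the luminescence signal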
cells [9] = format: functional, cell-based
[10] = cytotoxicity toward NIH3T3 fibroblasts, dose response, counter-screen, cell-based, ATP luminescence, mouse fibroblasts (AID 2010); format: functional;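 further: cells exposed to compound for about 90 hours before reading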
cells [11] = format: functional, cell-based; remark: listed apart in the source
[12] = NIH-3T3 fibroblast cytotoxicity, dose response, cytotoxicity control, cell-based, fluorescence, Alamar Blue, secondary assay (AID 2327); format: functional;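 further: NIH-3T3 mouse fibroblasts cultured with fluconazole at 8 µg/mL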
[13] = biological target: T5, Corticotropin-releasing factor receptor 2/Corticotropin-releasing factor-binding protein (Homo sapiens, UniProt P24387+Q13324); assay: activators of CRF receptor 2 with binding protein – uHTS hits, confirmation (AID 602473); format: functional; settings: read-out: EC50_Mean
T5 sequence (Q13324 whole entry): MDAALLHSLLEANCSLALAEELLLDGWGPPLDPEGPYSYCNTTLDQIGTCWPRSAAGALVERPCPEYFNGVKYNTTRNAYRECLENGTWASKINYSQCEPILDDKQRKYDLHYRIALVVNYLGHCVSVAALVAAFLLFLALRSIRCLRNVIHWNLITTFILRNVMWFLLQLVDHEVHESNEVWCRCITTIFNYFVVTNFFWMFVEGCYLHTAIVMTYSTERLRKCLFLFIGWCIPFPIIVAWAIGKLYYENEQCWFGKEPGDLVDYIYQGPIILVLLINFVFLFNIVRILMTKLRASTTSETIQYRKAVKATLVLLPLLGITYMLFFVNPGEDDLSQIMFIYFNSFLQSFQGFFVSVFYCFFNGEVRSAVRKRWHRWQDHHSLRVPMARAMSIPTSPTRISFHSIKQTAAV
T5 sequence (P24387 whole entry): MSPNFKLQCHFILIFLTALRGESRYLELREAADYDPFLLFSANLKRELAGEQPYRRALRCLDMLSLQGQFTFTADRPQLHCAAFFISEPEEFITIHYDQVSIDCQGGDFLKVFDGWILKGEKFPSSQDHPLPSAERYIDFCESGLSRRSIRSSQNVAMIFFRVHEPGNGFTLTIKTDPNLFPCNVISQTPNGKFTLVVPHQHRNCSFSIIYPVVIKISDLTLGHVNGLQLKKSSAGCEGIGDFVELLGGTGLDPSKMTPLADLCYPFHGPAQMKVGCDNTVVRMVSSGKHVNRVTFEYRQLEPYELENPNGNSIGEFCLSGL

Genome polyprotein = Genome polyprotein (dengue virus type 2, UniProt P29990); assay: Dengue-2 NS5 methyltransferase inhibitors, primary screen, biochemical, confirmation dose response (AID 588689); format: functional
Genome polyprotein, sequence (P29990 2492-3391 limits assumed): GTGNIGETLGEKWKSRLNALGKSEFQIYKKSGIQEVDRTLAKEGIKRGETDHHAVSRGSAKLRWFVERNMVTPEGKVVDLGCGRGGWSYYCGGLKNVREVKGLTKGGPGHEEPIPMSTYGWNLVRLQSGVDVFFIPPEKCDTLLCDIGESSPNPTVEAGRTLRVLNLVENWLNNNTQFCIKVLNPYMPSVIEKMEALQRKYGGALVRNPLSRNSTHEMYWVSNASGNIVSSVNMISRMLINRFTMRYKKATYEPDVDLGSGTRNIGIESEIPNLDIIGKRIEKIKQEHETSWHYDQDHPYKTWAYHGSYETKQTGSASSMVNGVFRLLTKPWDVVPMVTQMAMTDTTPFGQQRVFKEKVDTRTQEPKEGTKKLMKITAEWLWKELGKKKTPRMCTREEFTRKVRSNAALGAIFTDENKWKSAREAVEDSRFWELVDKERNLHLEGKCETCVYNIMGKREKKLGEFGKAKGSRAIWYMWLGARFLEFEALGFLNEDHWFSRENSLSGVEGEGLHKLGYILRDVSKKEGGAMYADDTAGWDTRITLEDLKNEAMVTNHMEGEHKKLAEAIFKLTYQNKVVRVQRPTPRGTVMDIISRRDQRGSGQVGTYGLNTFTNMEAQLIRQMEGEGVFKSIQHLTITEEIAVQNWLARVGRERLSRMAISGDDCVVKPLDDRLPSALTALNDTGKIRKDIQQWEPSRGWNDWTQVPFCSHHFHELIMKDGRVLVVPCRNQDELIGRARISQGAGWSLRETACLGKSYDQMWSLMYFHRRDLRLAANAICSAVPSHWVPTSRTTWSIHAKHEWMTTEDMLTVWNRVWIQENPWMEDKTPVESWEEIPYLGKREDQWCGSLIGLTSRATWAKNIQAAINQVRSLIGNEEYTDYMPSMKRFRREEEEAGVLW

Cytochrome P450 1A2 = biological target: T6, Cytochrome P450 1A2 (Homo sapiens, UniProt P05177);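 further: PubChem cytochrome P450 panel assay, CYP1A2 panel member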
T6 sequence (P05177 whole entry): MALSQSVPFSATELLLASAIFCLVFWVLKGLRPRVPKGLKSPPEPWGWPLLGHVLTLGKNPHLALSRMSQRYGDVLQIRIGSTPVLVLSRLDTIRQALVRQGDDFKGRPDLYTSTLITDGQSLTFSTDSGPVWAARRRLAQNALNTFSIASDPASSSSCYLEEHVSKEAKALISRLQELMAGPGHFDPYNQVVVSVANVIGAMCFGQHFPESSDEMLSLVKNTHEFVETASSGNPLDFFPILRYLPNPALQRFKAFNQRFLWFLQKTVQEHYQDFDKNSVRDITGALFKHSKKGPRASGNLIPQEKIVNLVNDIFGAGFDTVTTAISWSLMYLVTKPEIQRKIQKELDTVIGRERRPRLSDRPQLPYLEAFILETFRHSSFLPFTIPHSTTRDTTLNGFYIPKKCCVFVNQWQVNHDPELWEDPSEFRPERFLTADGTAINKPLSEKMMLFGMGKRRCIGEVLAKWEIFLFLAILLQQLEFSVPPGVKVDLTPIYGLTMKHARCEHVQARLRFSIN

T1 sequence (P49327 whole entry, the tested form may be a part): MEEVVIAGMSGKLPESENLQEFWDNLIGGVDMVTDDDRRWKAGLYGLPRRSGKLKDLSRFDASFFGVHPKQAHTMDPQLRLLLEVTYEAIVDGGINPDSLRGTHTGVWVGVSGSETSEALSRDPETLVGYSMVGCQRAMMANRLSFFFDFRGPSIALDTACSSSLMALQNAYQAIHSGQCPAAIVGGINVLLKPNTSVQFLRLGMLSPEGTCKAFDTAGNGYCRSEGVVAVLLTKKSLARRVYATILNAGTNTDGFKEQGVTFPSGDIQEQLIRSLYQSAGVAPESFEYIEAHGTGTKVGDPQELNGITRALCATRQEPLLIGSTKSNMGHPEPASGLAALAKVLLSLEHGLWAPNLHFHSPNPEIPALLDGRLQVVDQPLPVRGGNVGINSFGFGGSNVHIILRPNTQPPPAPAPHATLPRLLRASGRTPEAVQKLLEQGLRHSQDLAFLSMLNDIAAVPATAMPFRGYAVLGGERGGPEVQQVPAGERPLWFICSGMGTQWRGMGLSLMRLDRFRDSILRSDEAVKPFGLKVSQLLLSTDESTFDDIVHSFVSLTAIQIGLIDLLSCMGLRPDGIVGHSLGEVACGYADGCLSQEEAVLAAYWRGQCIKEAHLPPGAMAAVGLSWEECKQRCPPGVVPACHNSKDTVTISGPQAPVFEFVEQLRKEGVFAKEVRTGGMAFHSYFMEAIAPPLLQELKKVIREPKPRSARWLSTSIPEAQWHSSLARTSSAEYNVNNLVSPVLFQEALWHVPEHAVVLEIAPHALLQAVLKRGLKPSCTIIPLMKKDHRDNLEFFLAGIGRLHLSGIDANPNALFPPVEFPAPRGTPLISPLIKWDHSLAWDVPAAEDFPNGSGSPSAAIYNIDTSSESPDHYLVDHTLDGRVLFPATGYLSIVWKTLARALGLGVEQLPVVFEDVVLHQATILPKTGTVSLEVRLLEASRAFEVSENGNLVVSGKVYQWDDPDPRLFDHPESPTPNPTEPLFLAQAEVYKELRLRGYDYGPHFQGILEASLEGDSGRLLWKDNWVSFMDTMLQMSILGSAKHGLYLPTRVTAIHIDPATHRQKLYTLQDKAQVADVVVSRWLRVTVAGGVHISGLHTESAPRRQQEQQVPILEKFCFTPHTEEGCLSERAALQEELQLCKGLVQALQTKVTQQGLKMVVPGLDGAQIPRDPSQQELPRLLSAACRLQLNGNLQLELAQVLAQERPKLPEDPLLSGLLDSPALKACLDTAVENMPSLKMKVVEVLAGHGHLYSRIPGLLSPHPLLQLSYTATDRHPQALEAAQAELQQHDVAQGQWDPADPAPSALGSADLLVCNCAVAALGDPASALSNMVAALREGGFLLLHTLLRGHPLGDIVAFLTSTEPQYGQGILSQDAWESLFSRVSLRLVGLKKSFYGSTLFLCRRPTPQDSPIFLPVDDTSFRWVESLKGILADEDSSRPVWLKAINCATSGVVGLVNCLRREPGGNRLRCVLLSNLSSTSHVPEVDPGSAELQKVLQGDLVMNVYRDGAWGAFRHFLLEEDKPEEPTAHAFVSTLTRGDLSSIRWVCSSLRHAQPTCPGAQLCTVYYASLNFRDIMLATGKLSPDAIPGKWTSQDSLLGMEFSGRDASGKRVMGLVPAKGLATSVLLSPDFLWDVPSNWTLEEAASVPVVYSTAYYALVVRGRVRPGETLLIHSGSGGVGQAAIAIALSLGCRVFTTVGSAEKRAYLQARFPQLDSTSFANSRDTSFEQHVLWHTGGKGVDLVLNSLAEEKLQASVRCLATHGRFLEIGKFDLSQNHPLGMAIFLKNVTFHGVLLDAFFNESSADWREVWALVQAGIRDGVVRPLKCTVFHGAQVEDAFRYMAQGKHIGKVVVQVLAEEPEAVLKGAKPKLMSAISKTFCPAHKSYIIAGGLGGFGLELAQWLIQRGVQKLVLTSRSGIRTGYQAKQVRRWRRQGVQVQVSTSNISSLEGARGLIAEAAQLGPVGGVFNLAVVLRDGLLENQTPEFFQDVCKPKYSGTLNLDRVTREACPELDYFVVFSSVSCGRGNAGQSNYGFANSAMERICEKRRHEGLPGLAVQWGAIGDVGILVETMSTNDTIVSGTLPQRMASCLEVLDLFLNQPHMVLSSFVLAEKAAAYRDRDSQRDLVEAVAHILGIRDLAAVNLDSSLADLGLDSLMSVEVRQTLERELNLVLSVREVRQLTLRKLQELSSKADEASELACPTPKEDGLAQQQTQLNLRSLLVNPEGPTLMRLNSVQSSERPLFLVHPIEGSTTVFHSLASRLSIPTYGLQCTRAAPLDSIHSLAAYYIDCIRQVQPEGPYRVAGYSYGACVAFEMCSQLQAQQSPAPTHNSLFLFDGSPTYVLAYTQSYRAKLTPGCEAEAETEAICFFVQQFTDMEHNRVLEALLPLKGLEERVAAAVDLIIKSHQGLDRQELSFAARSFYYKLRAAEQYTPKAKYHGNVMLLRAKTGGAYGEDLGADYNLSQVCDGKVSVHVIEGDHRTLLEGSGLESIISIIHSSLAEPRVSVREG

**Q.** Which results are given for `CCC(C)(C)C1CCc2n[nH]c(C(=O)NCCCNC(=O)OC(C)(C)C)c2C1` (stereo not given)?
**A.** IC50 (Fatty acid synthase [1]): 0.524 µM (active); IC50 (Fatty acid synthase [2]): 24.3 µM (inactive)

**Q.** What does the source list for `CCN1CCN(c2c(Cl)cccc2NC(=O)c2ccc3c(c2)OCCO3)CC1`?
**A.** EC50 (Protein RecA): > 380 µM (inactive); AC50 [3]: > 380 µM (inactive)

**Q.** With `CC1=NN(c2ccccc2)C(=O)C1C(=S)SC1CC(=O)NC1=O` (stereo not given) as the compound, how does the IC50 [4] read?
**A.** Its IC50 is > 66 µM (inactive).

**Q.** And the IC50 [5]?
**A.** Its IC50 is > 66 µM (inactive).

**Q.** For `CC1(Cc2ccc(OC(F)(F)F)cc2)C(=O)Nc2c(Cl)ccc(Cl)c21` (stereo not given), which AC50 [6] is on record?
**A.** Its AC50 is 25.7 µM (active).

**Q.** Which AC50 (INS1) does the source give for `CN(C)S(=O)(=O)c1cccc(NC(=S)N/N=C/c2cc(Br)ccc2O)c1` here?
**A.** The AC50 was 0.481 µM (active).

**Q.** What about the EC50 [7] of the same compound?
**A.** The EC50 was 2.83 µM (active).

**Q.** What about the EC50 [8] of the same compound?
**A.** The EC50 was 2.27 µM (active).

**Q.** What about the EC50 (cells [9]) of the same compound?
**A.** The EC50 was > 350 µM (not active).

**Q.** What about the EC50 [10] of the same compound?
**A.** Its EC50 is > 60 µM (not active).

**Q.** What about the EC50 (cells [11]) of the same compound?
**A.** Its EC50 is 7.76 µM (active).

**Q.** What about the EC50 [12] of the same compound?
**A.** The EC50 was > 150 µM (inactive).

**Q.** Which EC50 [13] does the source give for `O=C1CSC(=S)N1N=Cc1c(F)cccc1Cl` here?
**A.** Its EC50 is > 53 µM (inactive).

**Q.** Which EC50 [13] does the source give for `CSCCC(NC(=O)c1ccccc1)C(=O)N/N=C(\C)c1ccccc1` (stereo not given) here?
**A.** The EC50 was 7.06 µM (active).

**Q.** For `COc1ccc(C(O)c2nccc3cc(OC)c(OC)cc23)cc1OC` (stereo not given), which EC50 (Protein RecA) is on record?
**A.** The EC50 was 10.7 µM (active).

**Q.** What about the AC50 [3] of the same compound?
**A.** The AC50 was 3.56 µM (active).

**Q.** With `Cc1[nH]n(C(N)=S)c(=O)c1C(c1ccccc1)C(C#N)C#N` (stereo not given) as the compound, how does the EC50 (Protein RecA) read?
**A.** The EC50 was 12.9 µM (active).

**Q.** What about the AC50 [3] of the same compound?
**A.** Its AC50 is 16.2 µM (active).

**Q.** Which EC50 (Protein RecA) does the source give for `Cc1[nH]n(-c2ccccc2)c(=O)c1C(c1ccc(O)c([N+](=O)[O-])c1)c1c(C)[nH]n(-c2ccccc2)c1=O` here?
**A.** The EC50 was 1.01 µM (active).

**Q.** What about the AC50 [3] of the same compound?
**A.** The AC50 was 2.53 µM (active).

**Q.** What about the IC50 (Genome polyprotein) of the same compound?
**A.** The IC50 was 28.7 µM (active).

**Q.** Which results are given for `Cc1ccc(-n2[nH]c(C)c(/C=N/c3ccc4[nH]c(O)nc4c3)c2=O)cc1C`?
**A.** IC50 [4]: 35.3 µM (inactive); IC50 [5]: 22 µM (inactive); AC50 (Cytochrome P450 1A2): 12.6 µM (inconclusive)

**Q.** What does the source list for `COc1ccc(C(=O)NN/C(C)=C/C(=O)C(F)(F)C(F)(F)C(F)(F)F)cc1`?
**A.** AC50 (INS1): 32.5 µM (active); EC50 [7]: 0.384 µM (active); EC50 [12]: 47.2 µM (active)

**Q.** For `C=CCC1=C/C(=C\c2c(N)n3nc(CC(=O)N4CCCC4)sc3nc2=O)C=C(OC)C1=O`, which EC50 [13] is on record?
**A.** Its EC50 is 10.6 µM (active).
